This is an account of results in patent US20110300566A1, “METHODS FOR SCREENING FOR HISTONE DEACETYLASE ACTIVITY AND FOR IDENTIFYING HISTONE DEACETYLASE INHIBITORS” (priority 2002, published 2011).

“Also recorded” adds a separate entry of the source. Bounds are passed on as bounds.

Series [1] can be described thus: Solubility of substrate in assay buffer. The format is physicochemical. Conditions: HDAC assay buffer.
For series [2], the target named is T1, Hos3 (Saccharomyces cerevisiae, UniProt Q02959).
T1 construct: made in house; host or cells: E. coli BL21(DE3)
T1 sequence (Q02959 1-697): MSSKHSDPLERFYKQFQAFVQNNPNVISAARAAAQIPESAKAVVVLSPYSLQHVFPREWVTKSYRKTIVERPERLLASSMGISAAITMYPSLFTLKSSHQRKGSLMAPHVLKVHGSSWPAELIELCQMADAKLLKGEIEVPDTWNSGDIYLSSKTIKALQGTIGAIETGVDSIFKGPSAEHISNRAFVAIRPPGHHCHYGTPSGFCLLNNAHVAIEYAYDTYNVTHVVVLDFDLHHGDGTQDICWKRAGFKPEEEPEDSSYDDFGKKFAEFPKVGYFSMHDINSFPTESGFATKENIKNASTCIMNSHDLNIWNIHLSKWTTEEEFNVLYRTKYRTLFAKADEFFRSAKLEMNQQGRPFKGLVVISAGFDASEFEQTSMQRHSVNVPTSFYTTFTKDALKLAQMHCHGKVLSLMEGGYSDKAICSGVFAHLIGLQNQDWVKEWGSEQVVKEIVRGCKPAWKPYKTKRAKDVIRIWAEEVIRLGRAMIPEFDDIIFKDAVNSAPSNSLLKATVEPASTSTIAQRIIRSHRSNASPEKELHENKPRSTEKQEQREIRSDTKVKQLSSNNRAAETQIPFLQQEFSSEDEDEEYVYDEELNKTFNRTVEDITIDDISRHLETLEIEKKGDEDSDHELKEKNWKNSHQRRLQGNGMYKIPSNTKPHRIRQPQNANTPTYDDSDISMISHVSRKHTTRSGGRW
The series can be described thus: HDAC inhibitor studies (competition with 7AC substrate, fluorescent assay). The format is biochemical. The note with it: for IC50: Hos3 (150 nM) with 7AC (75 mM) substrate; for Mode of Inhibition: Hos3, 7AC substrate, double-reciprocal plots, IC50 vs substrate concentration for TSA. The protocol:
Characterization of the Mechanism of Inhibition. Inhibitor studies were conducted using the 7AC substrate and the fluorescent histone deacetylase activity assay.
Competition experiments were performed in HDAC assay buffer (20 mM Tris, pH 8.0, 500 mM NaCl, 1 mM MnCl2) to a final reaction volume of 1 ml. Trichostatin A was solubilized in 100% DMSO, yielding a final concentration of 2% DMSO in this reaction. […] The final DMSO concentration in these reactions was 1%. 7AC substrate and inhibitor were added in the appropriate concentrations to the assay buffer and the basal rate of hydrolysis was recorded. Hos3 enzyme (150 nM) was added after 90 seconds and the reaction was allowed to proceed for 600 seconds. Initial rate data was transformed into appropriate rates and dose response plots were generated. IC50 values were calculated using the program Kaleidagraph with equation 4: […]
where vi is the initial velocity in the presence of inhibitor, vo, is the initial velocity in the absence of inhibitor, and [I] is the concentration of inhibitor. Ki values were determined by Dixon plots […]. The modes of inhibition were determined by double-reciprocal or Lineweaver-Burk plots, where 1/v is plotted as a function of 1/[S], using the programs of Cleland.

Another series deals with T2, HDAC2 (Homo sapiens, UniProt Q92769).
T2 construct: made in house; host or cells: E. coli BL21(DE3)
T2 sequence (Q92769 whole entry): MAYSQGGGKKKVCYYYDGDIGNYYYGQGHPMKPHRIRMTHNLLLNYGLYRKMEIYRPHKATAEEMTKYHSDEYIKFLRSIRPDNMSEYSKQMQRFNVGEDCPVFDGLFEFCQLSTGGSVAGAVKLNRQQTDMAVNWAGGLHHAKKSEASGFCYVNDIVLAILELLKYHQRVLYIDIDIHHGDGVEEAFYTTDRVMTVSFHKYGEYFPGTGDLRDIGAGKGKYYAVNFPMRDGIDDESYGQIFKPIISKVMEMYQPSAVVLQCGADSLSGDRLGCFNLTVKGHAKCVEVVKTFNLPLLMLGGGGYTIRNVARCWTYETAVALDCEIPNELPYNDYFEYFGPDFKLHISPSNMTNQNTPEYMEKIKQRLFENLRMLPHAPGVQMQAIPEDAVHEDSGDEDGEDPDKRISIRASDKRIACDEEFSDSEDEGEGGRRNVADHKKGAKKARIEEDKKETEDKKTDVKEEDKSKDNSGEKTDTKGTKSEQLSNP
Put plainly: Histone deacetylase fluorescent activity assay (7AC hydrolysis). The format is biochemical. The note with it: 7AC as substrate; 350 nM GST-HDAC2; pH 8.0. The protocol:
(§1) As depicted in FIG. 1, the inventive fluorescence-based HDAC assay monitors the hydrolysis of 7AC to 7-hydroxycoumarin, or of ACC to 7-hydroxycoumarin-3-carboxylic acid, at λex=332 nm and λem=447 nm. […] Utilization rations for each enzyme with the 7AC substrate were calculated. For Hos3, the utilization ratio was 1.9122×10^−4 s^−1, and 1274.8 M^−1 s^−1 when normalized by enzyme concentration. For HDLP, the utilization ratio was 2.0375×10^−4 s^−1, and 612.8 M^−1 s^−1 when normalized by enzyme concentration. For HDAC2, the utilization ratio was 1.2526×10^−5 s^−1, and 35.8 M^−1 s^−1 when normalized by enzyme concentration, as shown in Table 1.
(§2) HDAC activity assays were performed in HDAC assay buffer (20 mM Tris, pH 8.0, 500 mM NaCl, 1 mM MnCl2) to a final reaction volume of 1 ml in quartz spectrophotometer cuvettes. Fluorescence spectrophotometry was used to monitor ACC or 7AC hydrolysis (λex=332 nm, λem=447 nm). Internal fluorescence intensity calibrations were obtained using quinine sulfate as known in the art. ACC or 7AC substrate (solubilized in 100% DMSO) was added in the appropriate concentrations to the assay buffer (1% final concentration of DMSO) and the basal rate of hydrolysis was recorded. After 90 seconds, 150 nM Hos3 enzyme was added and the reaction was allowed to proceed for 600 seconds. […] Utilization ratios for Hos3 were calculated based on the adjusted initial rates. […]

Another series has as its system HDLP. Described as above. The series is classed as biochemical, Aquifex aeolicus. Conditions: 7AC as substrate; 330 nM GST-HDLP; pH 8.0. The protocol: as §1, §2
The target of series [3] is T1, Hos3. Described as above. The note with it: 7AC as substrate; 150 nM Hos3; pH 8.0. The format is biochemical. The protocol:
as §1, §2

The nature of series [4]: Background (basal) rate of substrate hydrolysis in assay buffer. The series is classed as physicochemical. Conditions: assay buffer at pH 8.0; compared with ACC. The protocol: as §1, §2
In series [5] the target is T1, Hos3. Put plainly: HDAC inhibitor studies (competition with 7AC substrate, fluorescent assay). The format is biochemical. The note with it: Hos3 (150 nM), slope of Henderson plot.
Substrate in series [6]: CC(=O)Oc1ccc([N+](=O)[O-])cc1
Put plainly: UV-based histone deacetylase activity assay. The note with it: other: MBP-Hos3; UV at 410 nm. The format is biochemical, Saccharomyces cerevisiae. The source says: The substrates 7AC and ACC can also be effectively utilized in a UV assay. The substrate absorbs from 250-340 nm, while the product has a maximal absorbance at 375 nm. So substrate hydrolysis/product formation can be monitored by the increase in absorbance at 375 nm. […] Para-nitrophenylacetate can also be used to assay HDAC activity. Upon acetate hydrolysis, the para-nitrophenylacetate liberates the colored p-nitrophenol chromophore; this reaction can be monitored on the UV at 410 nm.
HDAC activity assays were performed in HDAC Assay Buffer to a final reaction volume of 1 ml in quartz cuvettes. UV/Vis spectrophotometer was used to monitor the rate of 7AC hydrolysis. The 7AC substrate absorbs from 250-340 nm, while the product, 7-hydroxycoumarin, has a maximal absorbance at 375 nm. Reactions were initiated with substrate and allowed to proceed for 300 seconds, while monitoring the increase in absorbance at 375 nm. Para-nitrophenylacetate was also used to assay HDAC activity. Upon acetate hydrolysis, the para-nitrophenylacetate liberated the colored p-nitrophenol chromophore; this reaction was monitored on the UV at 410 nm. Initial rates and utilization ratios were calculated as described above.

In the case of `CC(=O)Oc1ccc([N+](=O)[O-])cc1` [Para-nitrophenylacetate, 4-nitrophenylacetate], in series [1], the Solubility limitation entry was “subject to solubility limitations that prevent complete saturation of the enzyme”.

As for `CCCC(=O)[O-].[Na+]` [NaB, sodium butyrate], on Hos3 [2], the IC50 is 13.4 mM. The molecule further registered a Ki on Hos3 [2] (Hos3 (150 nM), 7AC substrate, Dixon plot) of 12 mM. The entries for the “Mode of Inhibition” value at Hos3 [2], on Hos3 [2] (listed as Sodium butyrate) and on Hos3 [2] (listed as sodium butyrate) were “Mixed-”, “mixed-type inhibition” and “mixed-competitive inhibitor”, respectively.

As to `CC(=O)Oc1ccc2ccc(=O)oc2c1` [7AC, 7-Acetoxycoumarin], the “V/K (utilization ratio)” value on HDAC2 came out at 1.2526e-05 s⁻¹; in the series with HDLP it was 0.00020375 s⁻¹; on Hos3 [3], 0.00019122 s⁻¹. Also, the results for the “V/[Et]/K (utilization ratio normalized by enzyme concentration)” value at HDAC2, with HDLP and at Hos3 [3] were 35.8 M⁻¹ s⁻¹, 612.8 M⁻¹ s⁻¹ and 1274.8 M⁻¹ s⁻¹, respectively. Besides, the “Background rate of hydrolysis” value in series [4] is on record as “lower background rate of hydrolysis”. For the same molecule, the solubility in series [1] (aqueous buffer) is at most 1 mM.

`CC(/C=C/C(=O)NO)=C\[C@@H](C)C(=O)c1ccc(N(C)C)cc1` [TSA, Trichostatin A]: on Hos3 [5], the Ki came to 81 nM. At Hos3 [2], the IC50 stood at 0.000127 mM and the “Mode of Inhibition” value was “Tight-binding”. For the same molecule, at Hos3 [2] (listed as Trichostatin A), the “Mode of Inhibition” value is recorded as “tight-binding competitive inhibitor; also recorded: tight-binding, competitive inhibitor; also recorded: tight binding competitive inhibition”.

B1: Hos3 (Saccharomyces cerevisiae S288C) (protein)
chain: T1 sequence (Q02959 1-697)
notes: made in house; host or cells: E. coli BL21(DE3)
In the case of B1, the Km in series [6] was 8.3 mM.
